Measurements from US11098044B2, “Imidazopyridinyl compounds and use thereof for treatment of neurodegenerative disorders” (1ST Biotherapeutics, Inc., priority 2019, dated 2021).

Legend:
Assay type in all cases: biochemical
[1] = biological target: LRRK2 G2019S (Homo sapiens (Human), UniProt Q5S007, G2019S); assay: LRRK2 G2019S Kinase Assay (Adapta); conditions: 100 μM ATP, LRRKtide substrate; read-out: LRRK2_G2019S IC50
Procedure, shortened: (§1)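 Adapta TR-FRET kinase assay with LRRKtide substrate in 50 mM Tris pH 8.5, 0.01% BRIJ-35, 10 mM MgCl2, 1 mM EGTA, 0.02% NaN3. ATP at Km: 70 μM for WT LRRK2, 100 μM for G2019S. Reaction 1 h at room temperature; after 60 min with detection mix, 665/615 nm emission ratio read.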

[2] = biological target: LRRK2 (WT) (Homo sapiens (Human), UniProt Q5S007); assay: LRRK2 Kinase Assay (Adapta); conditions: 70 μM ATP, LRRKtide substrate
Procedure, shortened: as §1

[3] = biological target: c-Abl (His-tagged recombinant human ABL1) (Homo sapiens (Human), UniProt P00519); assay: c-abl Kinase Assay (ADP-Glo); conditions: ATP (25 μM), Abltide substrate
Procedure, shortened: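 His-tagged human ABL1 (0.25 ng/μl), Abltide (0.01 μg/μl) and ATP (25 μM), each at its added concentration, reacted with compound (0.5% DMSO) for 30 min at 30 °C. Buffer was 50 mM HEPES pH 7.5, 10 mM MgCl2, 1 mM EGTA, 0.05% BSA, 0.01% Triton X-100, 2 mM DTT. ADP formed was read by ADP-Glo luminescence, and IC50 was fitted from percent inhibition across concentrations.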

Sequence of LRRK2 (WT) (Q5S007 whole entry): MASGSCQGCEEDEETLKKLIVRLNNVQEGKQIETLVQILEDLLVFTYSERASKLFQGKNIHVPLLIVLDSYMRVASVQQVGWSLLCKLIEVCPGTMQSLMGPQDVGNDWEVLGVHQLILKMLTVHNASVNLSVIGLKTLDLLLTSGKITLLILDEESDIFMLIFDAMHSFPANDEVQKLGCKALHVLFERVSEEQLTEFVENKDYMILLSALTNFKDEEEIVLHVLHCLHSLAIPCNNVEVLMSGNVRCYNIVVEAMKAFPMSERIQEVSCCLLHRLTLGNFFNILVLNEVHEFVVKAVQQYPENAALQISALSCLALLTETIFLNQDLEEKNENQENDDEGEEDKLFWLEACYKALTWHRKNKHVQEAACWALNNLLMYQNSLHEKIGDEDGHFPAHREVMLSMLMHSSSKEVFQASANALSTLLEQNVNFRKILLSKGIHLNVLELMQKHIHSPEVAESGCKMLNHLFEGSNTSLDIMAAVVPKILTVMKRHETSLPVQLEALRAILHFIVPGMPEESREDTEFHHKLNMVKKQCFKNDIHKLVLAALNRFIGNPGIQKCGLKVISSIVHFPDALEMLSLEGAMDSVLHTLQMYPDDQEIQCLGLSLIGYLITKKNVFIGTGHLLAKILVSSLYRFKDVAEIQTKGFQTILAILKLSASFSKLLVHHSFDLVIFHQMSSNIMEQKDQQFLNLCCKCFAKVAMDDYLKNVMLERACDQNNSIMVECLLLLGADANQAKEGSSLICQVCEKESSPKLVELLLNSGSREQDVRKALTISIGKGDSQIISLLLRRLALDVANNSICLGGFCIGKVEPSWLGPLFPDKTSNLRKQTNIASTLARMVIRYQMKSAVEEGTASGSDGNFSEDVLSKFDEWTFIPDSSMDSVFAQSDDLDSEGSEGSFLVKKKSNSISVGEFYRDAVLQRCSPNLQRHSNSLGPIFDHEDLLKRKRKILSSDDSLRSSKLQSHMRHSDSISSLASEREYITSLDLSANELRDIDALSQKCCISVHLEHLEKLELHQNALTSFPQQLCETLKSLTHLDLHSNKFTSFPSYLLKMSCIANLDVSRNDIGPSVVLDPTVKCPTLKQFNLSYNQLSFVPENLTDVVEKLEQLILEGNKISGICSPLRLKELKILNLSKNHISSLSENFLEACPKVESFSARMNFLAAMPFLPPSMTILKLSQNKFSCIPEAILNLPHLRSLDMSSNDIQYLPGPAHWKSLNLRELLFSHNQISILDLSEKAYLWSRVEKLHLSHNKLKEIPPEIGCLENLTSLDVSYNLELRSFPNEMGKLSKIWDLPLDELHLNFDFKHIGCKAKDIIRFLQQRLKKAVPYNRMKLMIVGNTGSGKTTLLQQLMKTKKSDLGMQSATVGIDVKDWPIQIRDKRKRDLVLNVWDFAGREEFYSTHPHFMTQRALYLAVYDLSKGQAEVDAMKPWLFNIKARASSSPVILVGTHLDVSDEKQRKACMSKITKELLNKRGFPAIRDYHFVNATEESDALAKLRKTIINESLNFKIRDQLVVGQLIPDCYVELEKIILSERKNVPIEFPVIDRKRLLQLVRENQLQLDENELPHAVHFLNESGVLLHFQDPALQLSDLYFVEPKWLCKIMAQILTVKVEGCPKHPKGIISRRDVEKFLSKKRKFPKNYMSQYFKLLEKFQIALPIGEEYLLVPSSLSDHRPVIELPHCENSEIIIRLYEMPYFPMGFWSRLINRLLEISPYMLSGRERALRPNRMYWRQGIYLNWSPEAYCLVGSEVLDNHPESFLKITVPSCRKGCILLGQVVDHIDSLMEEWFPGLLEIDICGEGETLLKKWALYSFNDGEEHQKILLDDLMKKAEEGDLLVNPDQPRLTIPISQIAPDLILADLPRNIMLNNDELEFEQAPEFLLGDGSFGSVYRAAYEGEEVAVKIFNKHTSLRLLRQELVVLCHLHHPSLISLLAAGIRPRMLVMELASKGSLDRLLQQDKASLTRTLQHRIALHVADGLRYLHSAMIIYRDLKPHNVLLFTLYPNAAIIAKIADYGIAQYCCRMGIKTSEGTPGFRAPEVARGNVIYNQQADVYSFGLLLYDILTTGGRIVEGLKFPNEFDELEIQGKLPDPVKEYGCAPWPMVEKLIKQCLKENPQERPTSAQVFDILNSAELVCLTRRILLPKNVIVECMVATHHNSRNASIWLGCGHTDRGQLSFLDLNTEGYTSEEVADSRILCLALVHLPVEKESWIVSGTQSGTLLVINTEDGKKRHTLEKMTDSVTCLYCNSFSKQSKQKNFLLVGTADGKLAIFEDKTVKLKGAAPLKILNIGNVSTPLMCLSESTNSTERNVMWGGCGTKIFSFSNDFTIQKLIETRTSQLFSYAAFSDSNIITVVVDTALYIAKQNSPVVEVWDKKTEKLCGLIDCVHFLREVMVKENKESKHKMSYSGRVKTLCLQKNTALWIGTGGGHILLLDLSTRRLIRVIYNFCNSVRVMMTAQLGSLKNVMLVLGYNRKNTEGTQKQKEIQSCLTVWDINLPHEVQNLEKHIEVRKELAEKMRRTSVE
Sequence of LRRK2 G2019S (Q5S007 whole entry G2019S): as the sequence (Q5S007 whole entry) above, with G2019S counted along it
Sequence of c-Abl (His-tagged recombinant human ABL1) (P00519 whole entry): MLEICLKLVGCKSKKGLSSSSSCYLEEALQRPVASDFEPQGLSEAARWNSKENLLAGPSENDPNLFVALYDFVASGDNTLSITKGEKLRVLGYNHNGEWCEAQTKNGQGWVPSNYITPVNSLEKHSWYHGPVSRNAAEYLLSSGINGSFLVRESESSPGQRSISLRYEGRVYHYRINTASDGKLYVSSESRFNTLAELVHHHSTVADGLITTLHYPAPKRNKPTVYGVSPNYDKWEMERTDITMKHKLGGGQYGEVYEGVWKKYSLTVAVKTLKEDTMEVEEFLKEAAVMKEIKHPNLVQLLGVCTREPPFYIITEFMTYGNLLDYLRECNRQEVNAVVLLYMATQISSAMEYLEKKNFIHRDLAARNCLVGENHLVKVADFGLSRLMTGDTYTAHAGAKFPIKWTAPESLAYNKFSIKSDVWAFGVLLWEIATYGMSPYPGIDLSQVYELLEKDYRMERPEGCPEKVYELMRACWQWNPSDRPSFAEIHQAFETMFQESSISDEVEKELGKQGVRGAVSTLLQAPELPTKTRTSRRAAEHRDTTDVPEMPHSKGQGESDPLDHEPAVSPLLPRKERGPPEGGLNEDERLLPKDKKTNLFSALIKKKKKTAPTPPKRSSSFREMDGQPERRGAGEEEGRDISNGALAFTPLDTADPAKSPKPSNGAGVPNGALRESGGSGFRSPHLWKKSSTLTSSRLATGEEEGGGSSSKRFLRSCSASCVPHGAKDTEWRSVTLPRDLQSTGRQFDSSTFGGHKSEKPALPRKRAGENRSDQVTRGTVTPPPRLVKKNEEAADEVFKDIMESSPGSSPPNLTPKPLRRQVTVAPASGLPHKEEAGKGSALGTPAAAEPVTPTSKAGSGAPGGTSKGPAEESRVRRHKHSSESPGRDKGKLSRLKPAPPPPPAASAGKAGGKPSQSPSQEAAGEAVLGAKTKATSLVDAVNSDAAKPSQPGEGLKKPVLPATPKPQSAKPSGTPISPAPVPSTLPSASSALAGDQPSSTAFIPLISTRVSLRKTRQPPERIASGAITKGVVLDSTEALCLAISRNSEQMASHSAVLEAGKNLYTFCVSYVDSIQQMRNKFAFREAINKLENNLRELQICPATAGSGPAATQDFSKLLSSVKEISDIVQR

Compound | IC50 [1] [µM] | IC50 [2] [µM] | IC50 [3] [µM]
O=C(Nc1cn2cc(-c3ccc4sc(=O)[nH]c4c3)ccc2n1)[C@@H]1C[C@@H]1F [Example 54, (1S,2S)-2-fluoro-N-(6-(2-oxo-2,3-dihydrobenzo[d]thiazol-5-yl)imidazo[1,2-a]pyridin-2-yl)cyclopropane-1-carboxamide] | 0.101 to 1 | > 1 | 0.01 to 0.1
Cc1ccc(-n2cccn2)cc1-c1ccc2nc(NC(=O)[C@@H]3C[C@@H]3F)cn2c1 [Example 56, (1S,2S)-2-fluoro-N-(6-(2-methyl-5-(1H-pyrazol-1-yl)phenyl)imidazo[1,2-a]pyridin-2-yl)cyclopropane-1-carboxamide] | 0.101 to 1 | 0.101 to 1 | < 0.01
COc1c(F)cccc1-c1ccc2nc(NC(=O)[C@@H]3C[C@@H]3F)cn2c1 [Example 59, (1S,2S)-2-fluoro-N-(6-(3-fluoro-2-methoxyphenyl)imidazo[1,2-a]pyridin-2-yl)cyclopropanecarboxamide] | 0.01 to 0.1 | 0.01 to 0.1 | < 0.01
N#Cc1c(F)cccc1-c1ccc2nc(NC(=O)[C@@H]3C[C@@H]3F)cn2c1 [Example 60, (1S,2S)—N-(6-(2-cyano-3-fluorophenyl)imidazo[1,2-a]pyridin-2-yl)-2-fluorocyclopropanecarboxamide] | 0.01 to 0.1 | 0.01 to 0.1 | 0.01 to 0.1
O=C(Nc1cn2cc(-c3cccc(F)c3F)ccc2n1)[C@@H]1C[C@@H]1F [Example 62, (1S,2S)—N-(6-(2,3-difluorophenyl)imidazo[1,2-a]pyridin-2-yl)-2-fluorocyclopropanecarboxamide] | 0.01 to 0.1 | 0.01 to 0.1 | < 0.01
Cc1ccc2[nH]cc(C)c2c1-c1ccc2nc(NC(=O)[C@@H]3C[C@@H]3F)cn2c1 [Example 63, (1S,2S)—N-(6-(3,5-dimethyl-1H-indol-4-yl)imidazo[1,2-a]pyridin-2-yl)-2-fluorocyclopropanecarboxamide] | 0.01 to 0.1 | 0.101 to 1 | < 0.01
CSc1c(F)cccc1-c1ccc2nc(NC(=O)[C@@H]3C[C@@H]3F)cn2c1 [Example 66, (1S,2S)-2-fluoro-N-(6-(3-fluoro-2-(methylthio)phenyl)imidazo[1,2-a]pyridin-2-yl)cyclopropanecarboxamide] | 0.01 to 0.1 | 0.101 to 1 | < 0.01
CC(=O)c1c(F)cccc1-c1ccc2nc(NC(=O)[C@@H]3C[C@@H]3F)cn2c1 [Example 68, (1S,2S)—N-(6-(2-acetyl-3-fluorophenyl)imidazo[1,2-a]pyridin-2-yl)-2-fluorocyclopropanecarboxamide] | > 1 | > 1 | 0.01 to 0.1
NCc1c(F)cccc1-c1ccc2nc(NC(=O)[C@@H]3C[C@@H]3F)cn2c1 [Example 74, (1S,2S)—N-(6-(2-(aminomethyl)-3-fluorophenyl)imidazo[1,2-a]pyridin-2-yl)-2-fluorocyclopropanecarboxamide] | > 1 | > 1 | > 1
CC(=O)NCc1c(F)cccc1-c1ccc2nc(NC(=O)[C@@H]3C[C@@H]3F)cn2c1 [Example 75, (1S,2S)—N-(6-(2-(acetamidomethyl)-3-fluorophenyl)imidazo[1,2-a]pyridin-2-yl)-2-fluorocyclopropanecarboxamide] | > 1 | > 1 | 0.101 to 1
Cc1c(F)cccc1-c1ccc2nc(NC(=O)C3CCC3)cn2c1 [Example 76, N-(6-(3-fluoro-2-methylphenyl)imidazo[1,2-a]pyridin-2-yl)cyclobutanecarboxamide] | 0.01 to 0.1 | 0.01 to 0.1 | 0.01 to 0.1
Cc1c(F)cccc1-c1ccc2nc(NC(=O)C3CC(F)C3)cn2c1 (stereo not drawn) [Example 78, 3-fluoro-N-(6-(3-fluoro-2-methylphenyl)imidazo[1,2-a]pyridin-2-yl)cyclobutanecarboxamide] | 0.01 to 0.1 | 0.101 to 1 | 0.01 to 0.1
Cc1c(F)cccc1-c1ccc2nc(NC(=O)C3CC(F)(F)C3)cn2c1 [Example 79, 3,3-difluoro-N-(6-(3-fluoro-2-methylphenyl)imidazo[1,2-a]pyridin-2-yl)cyclobutanecarboxamide] | 0.101 to 1 | 0.101 to 1 | 0.01 to 0.1
COCCOCc1c(F)cccc1-c1ccc2nc(NC(=O)[C@@H]3C[C@@H]3F)cn2c1 [Example 82, (1S,2S)-2-fluoro-N-(6-(3-fluoro-2-((2-methoxyethoxy)methyl)phenyl)imidazo[1,2-a]pyridin-2-yl)cyclopropanecarboxamide] | 0.101 to 1 | > 1 | 0.01 to 0.1
O=C(Nc1cn2cc(-c3cccc(F)c3COCCO)ccc2n1)[C@@H]1C[C@@H]1F [Example 83, (1S,2S)-2-fluoro-N-(6-(3-fluoro-2-((2-hydroxyethoxy)methyl)phenyl)imidazo[1,2-a]pyridin-2-yl)cyclopropanecarboxamide] | > 1 | 0.101 to 1 | 0.101 to 1
CN(C)Cc1c(F)cccc1-c1ccc2nc(NC(=O)[C@@H]3C[C@@H]3F)cn2c1 [Example 84, (1S,2S)—N-(6-(2-((dimethylamino)methyl)-3-fluorophenyl)imidazo[1,2-a]pyridin-2-yl)-2-fluorocyclopropanecarboxamide] | > 1 | > 1 | > 1

More lines, now with the values ahead:

IC50 [1] [µM] | IC50 [2] [µM] | IC50 [3] [µM] | Compound
0.01 to 0.1 | 0.101 to 1 | < 0.01 | Cc1c[nH]c2ncc(-c3ccc4nc(NC(=O)[C@@H]5C[C@@H]5F)cn4c3)cc12 [Example 53, (1S,2S)-2-fluoro-N-(6-(3-methyl-1H-pyrrolo[2,3-b]pyridin-5-yl)imidazo[1,2-a]pyridin-2-yl)cyclopropane-1-carboxamide]
0.101 to 1 | 0.101 to 1 | 0.01 to 0.1 | Nc1ccc(-c2ccc3nc(NC(=O)[C@@H]4C[C@@H]4F)cn3c2)cn1 [Example 55, (1S,2S)—N-(6-(6-aminopyridin-3-yl)imidazo[1,2-a]pyridin-2-yl)-2-fluorocyclopropane-1-carboxamide]
> 1 | > 1 | < 0.01 | O=C(Nc1cn2cc(-c3cccc(F)c3CO)ccc2n1)[C@@H]1C[C@@H]1F [Example 57, (1S,2S)-2-fluoro-N-(6-(3-fluoro-2-(hydroxymethyl)phenyl)imidazo[1,2-a]pyridin-2-yl)cyclopropane-1-carboxamide]
0.01 to 0.1 | 0.01 to 0.1 | < 0.01 | O=C(Nc1cn2cc(-c3cccc(F)c3Cl)ccc2n1)[C@@H]1C[C@@H]1F [Example 61, (1S,2S)—N-(6-(2-chloro-3-fluorophenyl)imidazo[1,2-a]pyridin-2-yl)-2-fluorocyclopropanecarboxamide]
0.101 to 1 | > 1 | < 0.01 | COCc1c(F)cccc1-c1ccc2nc(NC(=O)[C@@H]3C[C@@H]3F)cn2c1 [Example 64, (1S,2S)-2-fluoro-N-(6-(3-fluoro-2-(methoxymethyl)phenyl)imidazo[1,2-a]pyridin-2-yl)cyclopropanecarboxamide]
> 1 | > 1 | 0.01 to 0.1 | O=C(Nc1cn2cc(-c3cccc(F)c3-c3ccco3)ccc2n1)[C@@H]1C[C@@H]1F [Example 65, (1S,2S)-2-fluoro-N-(6-(3-fluoro-2-(furan-2-yl)phenyl)imidazo[1,2-a]pyridin-2-yl)cyclopropanecarboxamide]
0.01 to 0.1 | 0.01 to 0.1 | 0.01 to 0.1 | Cc1cc(F)ncc1-c1ccc2nc(NC(=O)[C@@H]3C[C@@H]3F)cn2c1 [Example 67, (1S,2S)-2-fluoro-N-(6-(6-fluoro-4-methylpyridin-3-yl)imidazo[1,2-a]pyridin-2-yl)cyclopropanecarboxamide]
> 1 | > 1 | 0.101 to 1 | Cc1cc(N(C)C)ncc1-c1ccc2nc(NC(=O)[C@@H]3C[C@@H]3F)cn2c1 [Example 69, (1S,2S)—N-(6-(6-(dimethylamino)-4-methylpyridin-3-yl)imidazo[1,2-a]pyridin-2-yl)-2-fluorocyclopropanecarboxamide]
0.01 to 0.1 | 0.01 to 0.1 | < 0.01 | Cc1c(F)cccc1-c1ccc2nc(NC(=O)C3CC3)cn2c1 [Example 70, N-(6-(3-fluoro-2-methylphenyl)imidazo[1,2-a]pyridin-2-yl)cyclopropanecarboxamide]
> 1 | > 1 | > 1 | CNCc1c(F)cccc1-c1ccc2nc(NC(=O)[C@@H]3C[C@@H]3F)cn2c1 [Example 80, (1S,2S)-2-fluoro-N-(6-(3-fluoro-2-((methylamino)methyl)phenyl)imidazo[1,2-a]pyridin-2-yl)cyclopropanecarboxamide]
> 1 | > 1 | > 1 | CC(C)NCc1c(F)cccc1-c1ccc2nc(NC(=O)[C@@H]3C[C@@H]3F)cn2c1 [Example 81, (1S,2S)-2-fluoro-N-(6-(3-fluoro-2-((isopropylamino)methyl)phenyl)imidazo[1,2-a]pyridin-2-yl)cyclopropanecarboxamide]
